Measured values from PubChem BioAssay AID330 (DTP/NCI, 2004).
Values joined by “and” are separate entries in the source; they are usually repeats but may differ in a detail not shown here. Identical values can stand only once. Toxic doses and inconclusive results are not listed. Rule for the calls: active = survival T/C of 150% or more; inactive = T/C below 125% in these data. Numbered stars: 1 amine (or outer) side, 2 acyl side, 3 side chain; on linkers, the order of the positions; unused ones are H or OH. Bridge positions count the residues as written; N and C are the ends. Square brackets hold non-standard residues; d marks the D form. Peptide text beside a SMILES is read from it. I, II: the chains in the order shown. * marks the point of attachment. ξ: configuration not given here. Quinaldoyl(3-OH,6-OMe) = COc1ccc2nc(C(=O)*)c(O)cc2c1; X8 = CC(=O)OC1CC=NN([*:1])C1C(=O)[*:2]; ξNMeVal(3-OH) = CNC(C(=O)O)C(C)(C)O; X7 = O=C(C1C(O)CC=NN1[*:1])[*:2]; Cbz = O=C(OCc1ccccc1)*; ξV = CC(C)C(N)C(=O)O; Sar = CNCC(=O)O

System: P388 leukemia ip, CD2F1 mice, survival T/C
Test: NCI In Vivo Anticancer Drug Screen. Data for tumor model P388 Leukemia (intraperitoneal) in CD2F1 (CDF1) mice
Settings: endpoint: median survival time, higher = longer survival
Outline: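 Mice carrying the transplanted tumor received test compound or vehicle. Survival was recorded in each group, and the value is the treated-group measurement divided by that of the vehicle-treated control group.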

[1] = dose: 12.5 mg/kg/injection, schedule: Q01DX009 (ip), vehicle: saline
[2] = dose: 12.5 mg/kg/injection, schedule: Q01DX009 (ip), vehicle: saline with Tween-80
[3] = dose: 25.0 mg/kg/injection, schedule: Q01DX009 (ip), vehicle: saline with Tween-80
[4] = dose: 50.0 mg/kg/injection, schedule: Q01DX009 (ip), vehicle: saline with Tween-80
[5] = dose: 50.0 mg/kg/injection, schedule: Q01DX005 (ip), vehicle: Klucel (hydroxypropylcellulose) (HPC)
[6] = dose: 100.0 mg/kg/injection, schedule: Q01DX005 (ip), vehicle: Klucel (hydroxypropylcellulose) (HPC)
[7] = dose: 50.0 mg/kg/injection, schedule: Q01DX005 (ip), vehicle: saline with Tween-80
[8] = dose: 100.0 mg/kg/injection, schedule: Q01DX005 (ip), vehicle: saline with Tween-80
[9] = dose: 200.0 mg/kg/injection, schedule: Q01DX005 (ip), vehicle: saline with Tween-80
[10] = dose: 6.25 mg/kg/injection, schedule: Q01DX009 (ip), vehicle: saline with Tween-80
[11] = dose: 100.0 mg/kg/injection, schedule: Q01DX009 (ip), vehicle: Klucel (hydroxypropylcellulose) (HPC)

Measured: T/C

CC(C)C1=CC2=CCC3C(C)(C(=O)O)CCCC3(C)C2CC1.[Ni] (configuration not stated)
inactive: [1] 95 % of control | dose: 25.0 mg/kg/injection, schedule: Q01DX009 (ip), vehicle: saline 88 % of control | dose: 50.0 mg/kg/injection, schedule: Q01DX009 (ip), vehicle: saline 88 % of control

C=CCN(CC=C)C(=O)CCN1CC1
inactive: dose: 2.5 mg/kg/injection, schedule: Q04DX003 (ip), vehicle: saline 108 % of control | dose: 5.0 mg/kg/injection, schedule: Q04DX003 (ip), vehicle: saline 87 % of control | dose: 10.0 mg/kg/injection, schedule: Q04DX003 (ip), vehicle: saline 104 % of control

CC(C)CN=C(N)Nc1cccc(NC(=O)Nc2ccc(Cl)cc2)c1
inactive: [2] 92 % of control | [3] 86 % of control | [4] 109 % of control and 91 % of control

CCCn1c(C)nc2ncn(-c3ccccc3)c2c1=O
inactive: [5] 101 % of control | [6] 102 % of control | dose: 200.0 mg/kg/injection, schedule: Q01DX005 (ip), vehicle: Klucel (hydroxypropylcellulose) (HPC) 101 % of control

CCOC(=O)N1c2ccccc2C(c2ccccc2)=NC1(C#N)CC (configuration not stated)
inactive: [7] 96 % of control | [8] 96 % of control | [9] 97 % of control

CNC1CC2OC(C)(C1OC)n1c3ccccc3c3c4c(c5c6ccccc6n2c5c31)C(=O)NC4 (configuration not stated)
inactive: dose: 0.75 mg/kg/injection, schedule: Q01DX005 (ip), vehicle: water 120 % of control | dose: 1.5 mg/kg/injection, schedule: Q01DX005 (ip), vehicle: water 90 % of control

OCCN1CCN(CCCN2c3cc(Cl)ccc3Sc3ccsc32)CC1
inactive: [5] 97 % of control | [6] 97 % of control

O=C(O)CCc1ccccc1Br
inactive: dose: 100.0 mg/kg/injection, schedule: Q04DX002 (ip), vehicle: saline with Tween-80 101 % of control | dose: 200.0 mg/kg/injection, schedule: Q04DX002 (ip), vehicle: saline with Tween-80 95 % of control | dose: 400.0 mg/kg/injection, schedule: Q04DX002 (ip), vehicle: saline with Tween-80 100 % of control

CCCCCC(C(=O)O)(c1ccccc1)c1ccccc1
inactive: [7] 106 % of control | [8] 106 % of control | [9] 106 % of control

COc1ccc2nc(C(=O)NC3COC(=O)C(C(C)(C)O)N(C)C(=O)CN(C)C(=O)CNC(=O)C4C(OC(C)=O)CC=NN4C(=O)C(NC(=O)c4nc5ccc(OC)cc5cc4O)COC(=O)C(C(C)(C)O)N(C)C(=O)CN(C)C(=O)CNC(=O)C4C(O)CC=NN4C3=O)c(O)cc2c1 (configuration not stated) (I: {Quinaldoyl(3-OH,6-OMe)}-S[X7]G[Sar][ξNMeVal(3-OH)] / II: {Quinaldoyl(3-OH,6-OMe)}-S[X8]G[Sar][ξNMeVal(3-OH)]; ester I:1-II:C, I:C-II:1; configuration not given here)
inactive: dose: 6.25 micrograms/kg/injection, schedule: Q01DX005 (ip), vehicle: DMSO 108 % of control | dose: 12.5 micrograms/kg/injection, schedule: Q01DX005 (ip), vehicle: DMSO 112 % of control | dose: 25.0 micrograms/kg/injection, schedule: Q01DX005 (ip), vehicle: DMSO 118 % of control | dose: 50.0 micrograms/kg/injection, schedule: Q01DX005 (ip), vehicle: DMSO 119 % of control | dose: 100.0 micrograms/kg/injection, schedule: Q01DX005 (ip), vehicle: DMSO 123 % of control

COC(=O)c1ccc(OP(=O)(N(C)C)N(C)C)cc1
inactive: dose: 3.12 mg/kg/injection, schedule: Q01DX009 (ip), vehicle: saline with Tween-80 98 % of control and 97 % of control | [10] 96 % of control | [2] 104 % of control and 96 % of control

CNCCOC(=O)/C=C1\CC[C@H]2[C@@H]([C@@H](O)C(=O)[C@@H]3[C@]2(C)CC[C@H](O)[C@]3(C)C(=O)OC)[C@H]1C
inactive: dose: 3.0 mg/kg/injection, schedule: Q01DX009 (ip), vehicle: saline 100 % of control | dose: 6.0 mg/kg/injection, schedule: Q01DX009 (ip), vehicle: saline 97 % of control | dose: 12.0 mg/kg/injection, schedule: Q01DX009 (ip), vehicle: saline 109 % of control | [1] 114 % of control

O=C(c1cc(Nc2ccnc3cc(Cl)ccc23)ccc1O)N1CCC(O)(c2ccccc2)CC1
inactive: [7] 102 % of control | [8] 108 % of control | [9] 109 % of control

CC(C)C(NC(=O)CN(C)C(=O)OCc1ccccc1)C(=O)O (configuration not stated) (Cbz-[Sar]-[ξV]-OH)
inactive: [7] 100 % of control | [8] 102 % of control

CC(C)Oc1ccc(C(=O)NS(=O)(=O)c2ccc(N=CC3C(=O)N(c4ccccc4)N(c4ccccc4)C3=O)cc2)cc1
inactive: [11] 92 % of control | dose: 200.0 mg/kg/injection, schedule: Q01DX009 (ip), vehicle: Klucel (hydroxypropylcellulose) (HPC) 86 % of control

Clc1ccc(NCc2ccc(CNc3ccc(Cl)cc3)cc2)cc1
inactive: [10] 98 % of control | [2] 91 % of control | [3] 91 % of control | [4] 97 % of control

Cc1ccnc(NC(=O)Nc2cc(Cl)ccc2Cl)c1
inactive: dose: 50.0 mg/kg/injection, schedule: Q01DX009 (ip), vehicle: Klucel (hydroxypropylcellulose) (HPC) 100 % of control | [11] 87 % of control

O=C1c2cccc3cc([N+](=O)[O-])cc(c23)C(=O)N1Cc1cccnc1
inactive: dose: 6.25 mg/kg/injection, schedule: Q01DX005 (ip), vehicle: saline with Tween-80 100 % of control | dose: 12.5 mg/kg/injection, schedule: Q01DX005 (ip), vehicle: saline with Tween-80 96 % of control | dose: 25.0 mg/kg/injection, schedule: Q01DX005 (ip), vehicle: saline with Tween-80 92 % of control | [8] 92 % of control | [9] 101 % of control

Cc1c(-c2ccccc2)n(O)c(-c2ccccc2Cl)[n+]1[O-]
inactive: [4] 94 % of control | dose: 100.0 mg/kg/injection, schedule: Q01DX009 (ip), vehicle: saline with Tween-80 98 % of control | dose: 200.0 mg/kg/injection, schedule: Q01DX009 (ip), vehicle: saline with Tween-80 100 % of control

C=CCC(O)CC1CC2CCCCN2O1 (configuration not stated)
inactive: dose: 50.0 mg/kg/injection, schedule: Q04DX003 (ip), vehicle: saline 104 % of control | dose: 100.0 mg/kg/injection, schedule: Q04DX003 (ip), vehicle: saline 104 % of control | dose: 200.0 mg/kg/injection, schedule: Q04DX003 (ip), vehicle: saline 99 % of control

CCOC(=O)c1ccc(N2C(C(=O)OCC)Nc3ccc(C(=O)OCC)cc3C2C(=O)OCC)cc1 (configuration not stated)
inactive: dose: 100.0 mg/kg/injection, schedule: Q04DX002 (ip), vehicle: Klucel (hydroxypropylcellulose) (HPC) 97 % of control | dose: 200.0 mg/kg/injection, schedule: Q04DX002 (ip), vehicle: Klucel (hydroxypropylcellulose) (HPC) 88 % of control

O=C1C(O)=C(O)C(=O)c2cc3c(cc21)OCO3
inactive: dose: 60.0 mg/kg/injection, schedule: Q01DX005 (ip), vehicle: Klucel (hydroxypropylcellulose) (HPC) 98 % of control | dose: 120.0 mg/kg/injection, schedule: Q01DX005 (ip), vehicle: Klucel (hydroxypropylcellulose) (HPC) 102 % of control | dose: 240.0 mg/kg/injection, schedule: Q01DX005 (ip), vehicle: Klucel (hydroxypropylcellulose) (HPC) 102 % of control

c1ccc2c(c1)OC1OC2Oc2ccccc21
inactive: dose: 60.0 mg/kg/injection, schedule: Q01DX005 (ip), vehicle: saline with Tween-80 100 % of control | dose: 120.0 mg/kg/injection, schedule: Q01DX005 (ip), vehicle: saline with Tween-80 100 % of control | dose: 240.0 mg/kg/injection, schedule: Q01DX005 (ip), vehicle: saline with Tween-80 101 % of control

NNC12CCC(c3ccccc31)c1ccccc12
inactive: dose: 50.0 mg/kg/injection, schedule: Q04DX003 (ip), vehicle: saline with Tween-80 95 % of control | dose: 100.0 mg/kg/injection, schedule: Q04DX003 (ip), vehicle: saline with Tween-80 110 % of control | dose: 200.0 mg/kg/injection, schedule: Q04DX003 (ip), vehicle: saline with Tween-80 110 % of control
